Data on eleven molecules can be found in ChEMBL document CHEMBL1201862, “PubChem BioAssay data set” (2004).

Assay in all cases: NCI-60 cell line screen, 48 h
The subject of experiment [1] is SW-620.
Experiment [2] relates to MDA-MB-435.
Experiment [3] relates to HCC 2998.
Experiment [4] deals with A549.
Experiment [5] relates to NCI-H226.
Experiment [6] concerns RXF 393.
Experiment [7] has as its system HCT-116.
The subject of experiment [8] is K562.
The test system of experiment [9] is KM12.
Experiment [10] concerns T47D.
Experiment [11] relates to HCT-15.
Experiment [12] concerns SK-MEL-5.
In experiment [13] the test system is SF-539.
For experiment [14], the system named is SNB-19.
For experiment [15], the system named is Hs-578T.
In experiment [16] the test system is SNB-75.
In experiment [17] the test system is BT-549.
In experiment [18] the test system is SK-MEL-2.
For experiment [19], the system named is OVCAR-5.
Experiment [20] relates to RPMI-8226.

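Compound exposure: 48 hours, 5 concentrations, 96-well plates. GI50 = concentration required for 50% inhibition of growth.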 The source made the active and inactive calls. Rule as the data show it: active = GI50 up to about 1.1 µM and inactive = higher.

As for `CCN(CC)CCNc1ccc2ncn3c4c(OC)ccc(OC)c4c(=O)c1c23`, the GI50 in experiment [1] is 0.853 µM (active); in experiment [2], > 10 µM (inactive); in experiment [3], 15.3 µM (inactive); in [4], 22.5 µM (inactive); in [5], 90.8 µM (inactive); in [6] it was 1.71 µM (inactive). The GI50 in [7] is 0.587 µM (active); in [8], 10.4 µM (inactive); in [9], 9.16 µM (inactive); in [10] it was > 100 µM (inactive); in [11], 16 µM; in [12], 17.2 µM (inactive). Moreover, the GI50 in experiment [13] was 20.8 µM (inactive); in [14] it was 20 µM (inactive); in experiment [15], > 10 µM (inactive); in [16], 10.6 µM (inactive); in experiment [17] it was > 10 µM (inactive).
On to `NC(=O)C(c1ccccc1)N1OC2C(=O)N(Cc3ccccc3)C(=O)C2C1c1cccc(Oc2ccc(Cl)cc2)c1` (stereo unspecified), for which the GI50 is 48.8 µM (inactive) in experiment [1]; 27 µM (inactive) in experiment [2]; 31.4 µM (inactive) in [4]; 26.8 µM (inactive) in experiment [5]; 17.5 µM (inactive) in experiment [6]; 19.4 µM (inactive) in experiment [7]. The GI50 was 26 µM (inactive) in experiment [8]; 28.3 µM (inactive) in experiment [9]; 32.1 µM (inactive) in [10]; 30.4 µM in experiment [11]; 15.9 µM (inactive) in experiment [12]; 18.7 µM (inactive) in [13]. The GI50 in experiment [14] is 37.1 µM (inactive); in experiment [18], 22.2 µM (inactive); in experiment [15], 49.1 µM (inactive); in experiment [16], 31.7 µM (inactive); in experiment [17], 34 µM (inactive); in experiment [19], 32.1 µM (inactive).
Consider `COc1cc2c(c(OC)c1OC)-c1ccc(=O)c(O)cc1[C@@H](NC(C)=O)CC2` [COLCHICEINE], for which the GI50 in experiment [1] was 26.5 µM (inactive); in [2], 18.4 µM (inactive); in [3], 15.3 µM (inactive); in experiment [4], 27.7 µM (inactive); in [20] it was 11.1 µM (inactive); in [5], 19.7 µM (inactive). The GI50 is 27.7 µM (inactive) in [7]; 15.6 µM (inactive) in experiment [8]; 15 µM (inactive) in experiment [9]; 5.51 µM (inactive) in [10]; 10.7 µM in [11]; 7.66 µM (inactive) in experiment [12]. In addition, the GI50 was 19.1 µM (inactive) in experiment [13]; 25.4 µM (inactive) in [14]; 25.5 µM (inactive) in experiment [18]; 21.3 µM (inactive) in [15]; 40.6 µM (inactive) in [16]; 14.6 µM (inactive) in [17]. Besides, in experiment [19], the GI50 was 33.5 µM (inactive).
In the case of `COc1ccc(/C(=N/N=c2[nH]c3ccccc3[nH]2)C(=O)O)cc1`, the GI50 in [1], in [2], in experiment [3], in experiment [4], in experiment [20] and in experiment [5] was > 100 µM (inactive) each time. The GI50 in [7] was > 100 µM (inactive); in experiment [8], > 100 µM (inactive); in [9] it was > 100 µM (inactive); in experiment [10], > 100 µM (inactive); in experiment [11], > 100 µM; in experiment [12] it was > 100 µM (inactive). Further, the GI50 in experiment [13], in experiment [14], in experiment [18], in [15], in [16] and in [17] was > 100 µM (inactive) in each case. In addition, in [19], the GI50 was > 100 µM (inactive).
For the molecule `Cc1nc2c(N3CCCC3)nc(N3CCNCC3)nc2nc1NCc1ccccc1`, the GI50 is 2.36 µM (inactive) in experiment [1]; 2.24 µM (inactive) in experiment [2]; 1.53 µM (inactive) in experiment [3]; 3.88 µM (inactive) in experiment [4]; 2.11 µM (inactive) in experiment [20]; 13.1 µM (inactive) in [5]. The GI50 is 1.62 µM (inactive) in experiment [7]; 2.81 µM (inactive) in experiment [8]; 2.84 µM (inactive) in [9]; 1.73 µM (inactive) in [10]; 2.09 µM in experiment [11]; 1.65 µM (inactive) in experiment [12]. The GI50 is 2.65 µM (inactive) in experiment [13]; 5.66 µM (inactive) in experiment [14]; 4.98 µM (inactive) in [18]; 6.17 µM (inactive) in experiment [15]; 0.578 µM (active) in [16]; 2.4 µM (inactive) in [17]. In experiment [19], the GI50 is 13 µM (inactive).
On to `COc1ccc2c(c1)CC[C@@H]1C2CC[C@]2(C)C(=O)N(CCN(C)C)C(=O)CC12` (stereo partly specified), for which the GI50 in [1], in experiment [2], in [3], in experiment [4], in experiment [5] and in experiment [6] was > 100 µM (inactive) in each case. Also, the GI50 in experiment [7] was > 100 µM (inactive); in experiment [8], > 100 µM (inactive); in [9], > 100 µM (inactive); in experiment [10], > 100 µM (inactive); in experiment [12], 83.9 µM (inactive); in experiment [13], > 100 µM (inactive). Besides, the GI50 in [14], in experiment [15], in [16], in experiment [17] and in experiment [19] was > 100 µM (inactive) each time.
In the case of `Cc1ccc(C)n2c1nc1cc3ccccc3cc12`, the GI50 in [1] was 33.1 µM (inactive); in [2], 44.8 µM (inactive); in experiment [4], 28.6 µM (inactive); in experiment [20], 42.5 µM (inactive); in [5], 36 µM (inactive); in experiment [6], 12.3 µM (inactive). Further, the GI50 is 15.3 µM (inactive) in experiment [7]; 47.2 µM (inactive) in [8]; 21.1 µM (inactive) in [9]; 11.1 µM (inactive) in [10]; 4.92 µM in experiment [11]; 17.1 µM (inactive) in experiment [12]. For the same molecule, the GI50 in experiment [13] is 30.7 µM (inactive); in [14] it was 24.4 µM (inactive); in [15], 60.3 µM (inactive); in experiment [16] it was 17 µM (inactive); in experiment [17] it was 25.6 µM (inactive); in [19], 74.3 µM (inactive).
For `NS(=O)(=O)c1ccc(/N=N/c2cnc(O)c(O)c2)cc1`, the GI50 in experiment [1] was > 100 µM (inactive); in experiment [2], > 100 µM (inactive); in [4], > 100 µM (inactive); in experiment [20] it was > 100 µM (inactive); in [5] it was > 100 µM (inactive); in experiment [6], 95.3 µM (inactive). The GI50 in [7] was > 100 µM (inactive); in experiment [8], > 100 µM (inactive); in [9], 96.8 µM (inactive); in experiment [10] it was 85.7 µM (inactive); in [11], > 100 µM; in experiment [12] it was 78.2 µM (inactive). Moreover, the GI50 in experiment [13] was 67.5 µM (inactive); in [14] it was 52.4 µM (inactive); in experiment [18] it was 52 µM (inactive); in [15], 66.1 µM (inactive); in experiment [16] it was 47.4 µM (inactive); in experiment [17], 42.5 µM (inactive). In experiment [19], the GI50 was > 100 µM (inactive).
For `CC1=C2c3ccccc3N(S(=O)(=O)c3ccccc3)[C@H]2[C@H](C(=O)N2C3CC4CC[C@@]3(CS2(=O)=O)C4(C)C)CC1` (stereo partly specified), the GI50 in experiment [1] was > 100 µM (inactive); in experiment [2] it was 56.5 µM (inactive); in experiment [4], 35.3 µM (inactive); in experiment [20], 0.334 µM (active); in experiment [5], 37.4 µM (inactive); in [6], 0.222 µM (active). In addition, the GI50 in [7] was 11.7 µM (inactive); in [8], 7.24 µM (inactive); in experiment [9], 49.5 µM (inactive); in experiment [10], 10.6 µM (inactive); in experiment [11], 5.36 µM; in [12], 22.8 µM (inactive). In addition, the GI50 was 0.415 µM (active) in experiment [13]; 24.9 µM (inactive) in [14]; 0.627 µM (active) in experiment [15]; 0.635 µM (active) in experiment [16]; 8.28 µM (inactive) in experiment [17]; > 100 µM (inactive) in experiment [19].
Turning to `CCNC1(c2cccc(C)c2)OC(C)(C)c2cccc3cccc1c23` (stereo unspecified), the GI50 in experiment [1] was 17.8 µM (inactive); in experiment [2] it was 16.9 µM (inactive); in [4], 15.6 µM (inactive); in [20], 0.0321 µM (active); in experiment [5] it was 19.9 µM (inactive); in experiment [6] it was 16.8 µM (inactive). Moreover, the GI50 was 27 µM (inactive) in [7]; 11.7 µM (inactive) in experiment [8]; 21.9 µM (inactive) in experiment [9]; 26.9 µM (inactive) in [10]; 19.6 µM in experiment [11]; 19.1 µM (inactive) in experiment [12]. Besides, the GI50 in experiment [13] is 17.9 µM (inactive); in [14], 18.2 µM (inactive); in [18], 15.7 µM (inactive); in experiment [15], 20.1 µM (inactive); in experiment [16], 15 µM (inactive); in experiment [17], 18.9 µM (inactive). Moreover, the GI50 in experiment [19] was 19.1 µM (inactive).
As to `Cc1ccc(S(=O)(=O)NCCCCC(N)C(=O)O)cc1` (stereo unspecified), the GI50 in experiment [1], in experiment [2], in experiment [4], in [20], in experiment [5] and in experiment [6] was > 100 µM (inactive) in each case. Further, the GI50 in [7] was > 100 µM (inactive); in [8], > 100 µM (inactive); in [9] it was > 100 µM (inactive); in experiment [10] it was > 100 µM (inactive); in experiment [11], > 100 µM; in experiment [12], > 100 µM (inactive). Also, the GI50 in experiment [13], in experiment [14], in [15], in experiment [16], in [17] and in experiment [19] was > 100 µM (inactive) each time.
